Experimental data reported in patent US9506907B2, “Bioengineered human trabecular meshwork for biological applications” (The Research Foundation of State University of New York, priority 2012, dated 2016).

Tests used:
[1] = system: bioengineered HTM (primary HTM cells on gelatin-coated 12 μm SU-8 scaffolds); assay: Perfusion of bioengineered HTM on SU-8 scaffold: transmembrane pressure at constant flow; format: cell-based, human
Description: 1. The flow system apparatus (FIG. 2) incorporating the principles and features of this invention is contained within a controlled environment, which herein comprises of a stand-alone perfusion chamber, with a cell growth medium entry system (FIG. 2c; 204) and a screening agent (for example a glaucoma drug) entry system (FIG. 2c; 204) as shown in FIG. 2c. The system allows for the screening agent to be added to the perfusate at a pre-determined concentration for a pre-determined number of hours. […]
8. […] Back pressures were continuously monitored with a pressure transducer and recorded. […]
(§1) A flow system apparatus for the controlled flow pressure measurement was constructed as shown in FIG. 2C was contained in a perfusion chamber housing comprised of at least a perfusion chamber with an integrated pressure transducer (FIG. 2C; 206), the sterilized, HTM biocompatible coated, SU-8 3-D micro- and nanostructured scaffold with or without HTM cells placed within a cell-culture insert (FIG. 2A; 202) and were secured in the scaffold holder, comprising at least a bottom element adapted for effluent (FIG. 2A; 203), a top element adapted for media entry (FIG. 2A; 201) inside the perfusion chamber (FIG. 2c). […] Back pressures were continuously monitored with a pressure transducer (FIG. 2C; 206) and recorded. […]

[2] = system: HTM cells grown on SU-8 scaffolds (morphology, F-actin cytoskeleton); assay: SEM and confocal imaging of HTM cells on SU-8 scaffolds after Lat-B perfusion; format: cell-based, human; settings: FIG. 15F
Description: 11. Follow up cell characterization studies may be conducted as desired with standard techniques well known to those of skill in the art. For this invention, samples were fixed and stained for SEM and confocal image analysis as described herein (FIGS. 11-15).
Cells were characterized using standard procedures for SEM, Immunocytochemistry and confocal imaging, well known to those of skill in the art.
as §1, with “2c). This flow system allowed for simultaneous control of the flow and measurement of the transmembrane pressure, permitting the exploration of the outflow characteristics of the in vitro HTM model.” for “2c).”

## C/C1=C/C(=O)O[C@@H]2C[C@@H](CC[C@H](C)/C=C\CC1)O[C@@](O)([C@@H]1CSC(=O)N1)C2 [Lat-B, latruncunlin-B]
[1]; FIG. 16, indicates decreased flow resistance
  perfusion pressure of the artificial trabecular meshwork after Lat-B treatment: decreased dramatically
[1]; Lat-B added to the perfusate at 2 μM for 4 hours, constant flow, 34° C., N=8, p<0.05 (FIG. 16)
  decrease of the resistance to flow: 92±6%
[2]
  F-actin cytoskeleton (confocal): elongated actin fibers were disturbed and became punctate actin bundles
